Source: patent US10253076B2, “Peptides and combination of peptides for use in immunotherapy against ovarian cancer and other cancers” (immatics biotechnologies GmbH, priority 2015, dated 2019)

Tests used:
CD8+ T cells = experiment: In vitro immunogenicity: T-cell priming with aAPCs loaded with peptide/MHC and anti-CD28, pMHC multimer readout; format: cell-based, human; conditions: HLA-A*02 restricted peptides
Protocol: In an aspect, the peptides are pre-screened for immunogenicity before being included in the warehouse. By way of example, and not limitation, the immunogenicity of the peptides included in the warehouse is determined by a method comprising in vitro T-cell priming through repeated stimulations of CD8+ T cells from healthy donors with artificial antigen presenting cells loaded with peptide/MHC complexes and anti-CD28 antibody.
In order to obtain information regarding the immunogenicity of the TUMAPs of the present invention, the inventors performed investigations using an in vitro T-cell priming assay based on repeated stimulations of CD8+ T cells with artificial antigen presenting cells (aAPCs) loaded with peptide/MHC complexes and anti-CD28 antibody.
In order to perform in vitro stimulations by artificial antigen presenting cells loaded with peptide-MHC complex (pMHC) and anti-CD28 antibody, the inventors first isolated CD8+ T cells from fresh HLA-A*02 leukapheresis products via positive selection using CD8 microbeads (Miltenyi Biotec, Bergisch-Gladbach, Germany) of healthy donors obtained from the University clinics Mannheim, Germany, after informed consent.
PBMCs and isolated CD8+ lymphocytes were incubated in T-cell medium (TCM) until use consisting of RPMI-Glutamax (Invitrogen, Karlsruhe, Germany) supplemented with 10% heat inactivated human AB serum (PAN-Biotech, Aidenbach, Germany), 100 U/ml Penicillin/100 μg/ml Streptomycin (Cambrex, Cologne, Germany), 1 mM sodium pyruvate (CC Pro, Oberdorla, Germany), 20 μg/ml Gentamycin (Cambrex). 2.5 ng/ml IL-7 (PromoCell, Heidelberg, Germany) and 10 U/ml IL-2 (Novartis Pharma, Nürnberg, Germany) were also added to the TCM at this step.
Generation of pMHC/anti-CD28 coated beads, T-cell stimulations and readout was performed in a highly defined in vitro system using four different pMHC molecules per stimulation condition and 8 different pMHC molecules per readout condition.
The purified co-stimulatory mouse IgG2a anti human CD28 Ab 9.3 (Jung et al., 1987) was chemically biotinylated using Sulfo-N-hydroxysuccinimidobiotin as recommended by the manufacturer (Perbio, Bonn, Germany). Beads used were 5.6 μm diameter streptavidin coated polystyrene particles (Bangs Laboratories, Illinois, USA).
pMHC used for positive and negative control stimulations were A*0201/MLA-001 (peptide […] (SEQ ID NO. 664) from modified Melan-A/MART-1) and A*0201/DDX5-001 ([…] from DDX5, SEQ ID NO. 665), respectively.
800.000 beads/200 μl were coated in 96-well plates in the presence of 4×12.5 ng different biotin-pMHC, washed and 600 ng biotin anti-CD28 were added subsequently in a volume of 200 μl. Stimulations were initiated in 96-well plates by co-incubating […] CD8+ T cells with 2×10^5 washed coated beads in 200 μl TCM supplemented with 5 ng/ml IL-12 (PromoCell) for 3 days at 37° C. Half of the medium was then exchanged by fresh TCM supplemented with 80 U/ml IL-2 and incubating was continued for 4 days at 37° C. This stimulation cycle was performed for a total of three times. For the pMHC multimer readout using 8 different pMHC molecules per condition, a two-dimensional combinatorial coding approach was used as previously described (Andersen et al., 2012) with minor modifications encompassing coupling to 5 different fluorochromes. Finally, multimeric analyses were performed by staining the cells with Live/dead near IR dye (Invitrogen, Karlsruhe, Germany), CD8-FITC antibody clone SK1 (BD, Heidelberg, Germany) and fluorescent pMHC multimers. For analysis, a BD LSRII SORP cytometer equipped with appropriate lasers and filters was used. Peptide specific cells were calculated as percentage of total CD8+ cells. Evaluation of multimeric analysis was done using the FlowJo software (Tree Star, Oregon, USA). In vitro priming of specific multimer+ CD8+ lymphocytes was detected by comparing to negative control stimulations. […]

HLA-A*02:01 = HLA-A*02:01 (Homo sapiens, UniProt P04439, D140Y/D185E/D98H/E176V/E277Q/G131W/G231S/I119V/I121R/I166T/I218V/L300P/L318F/N151K/N90K/P208A/P217A/Q86G/Q94H/R138H/R169H/T345S); experiment: MHC binding assay (UV-ligand exchange, beta2m ELISA, peptide exchange yield); conditions: binding of HLA-class I restricted peptides to HLA-A*02:01, ranged by peptide exchange yield (UV-ligand exchange, β2m ELISA)
Summary of the method: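 Peptide–HLA-A*02:01 complexes made by UV-mediated exchange of a photocleavable peptide with the test peptide. Exchange products diluted 100-fold on streptavidin-coated plates, 1 h at 37°C, then HRP anti-β2m 1 h at 37°C; TMB read at 450 nm to give exchange yield.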

Substance | Wells positive [%] (CD8+ T cells) | Peptide exchange (HLA-A*02:01)
36 (YVLEDLEVTV; listed as Homo sapiens) [compound 36] | ″+″ (<20% = +) | ″++″ (≥20% = ++)
443 (GLWEIENNPTV; listed as Homo sapiens) [compound 443] | ″+″ (<20% = +) | ″+++″ (≥50% = +++)
511 (FLDPYCSASV; listed as Homo sapiens) [compound 511] | ″+″ (<20% = +) | ″++″ (≥20% = ++)
48 (ALAELYEDEV; listed as Homo sapiens) [compound 48] | ″+″ (<20% = +) | ″+++″ (≥50% = +++)
79 (SLFIGEKAVLL; listed as Homo sapiens) [compound 79] | ″+″ (<20% = +) | ″+++″ (≥50% = +++)
113 (GLLPTPLFGV; listed as Homo sapiens) [compound 113] | ″+″ (<20% = +) | ″+++″ (≥50% = +++)
247 (VLLPNDLLEKV; listed as Homo sapiens) [compound 247] | ″+″ (<20% = +) | ″+++″ (≥50% = +++)
489 (KMWEELPEVV; listed as Homo sapiens) [compound 489] | ″+″ (<20% = +) | ″+++″ (≥50% = +++)
2 (SLLEADPFL; listed as Homo sapiens) [compound 2] | ″+″ (<20% = +) | ″+++″ (≥50% = +++)
141 (YLDFSNNRL; listed as Homo sapiens) [compound 141] | ″+″ (<20% = +) | ″++″ (≥20% = ++)
199 (ALQDVPLSSV; listed as Homo sapiens) [compound 199] | ″+″ (<20% = +) | ″+++″ (≥50% = +++)
60 (SLTIDGIYYV; listed as Homo sapiens) [compound 60] | ″++++″ (> = 70% = ++++) | ″++++″ (≥75% = ++++)
499 (KIFDIDEAEEGV; listed as Homo sapiens) [compound 499] | ″+″ (<20% = +) | ″++″ (≥20% = ++)
603 (FLIEPEHVNTV; listed as Homo sapiens) [compound 603] | ″+″ (<20% = +) | ″++″ (≥20% = ++)
8 (FTLGNVVGMYL; listed as Homo sapiens) [compound 8] | ″+″ (<20% = +) | ″++++″ (≥75% = ++++)
11 (KIFEMLEGV; listed as Homo sapiens) [compound 11] | ″+″ (<20% = +) | ″+++″ (≥50% = +++)
38 (FLLEDDIHVS; listed as Homo sapiens) [compound 38] | ″+″ (<20% = +) | ″+++″ (≥50% = +++)
143 (LLLDITPEI; listed as Homo sapiens) [compound 143] | ″+″ (<20% = +) | ″++++″ (≥75% = ++++)
56 (KLYEGIPVLL; listed as Homo sapiens) [compound 56] | ″+″ (<20% = +) | ″++++″ (≥75% = ++++)
384 (ILFANPNIFV; listed as Homo sapiens) [compound 384] | ″+″ (<20% = +) | ″+++″ (≥50% = +++)
150 (RLWEEGEELEL; listed as Homo sapiens) [compound 150] | ″+″ (<20% = +) | ″+++″ (≥50% = +++)
